In ChEMBL document CHEMBL1135453, “Inhibition of feline immunodeficiency virus (FIV) replication by DNA binding polyamides” (2002):

Key:
Type in all cases: functional
[1] = tested on: Feline immunodeficiency virus; assay: Effect on replication of FIV 34TF10 in chronically infected feline glial cell lines G355-5 at 0.1 nM conc; RT activity per ug/mL of protein concentration
[2] = tested on: Feline immunodeficiency virus; assay: Effect on replication of FIV 34TF10env in chronically infected feline glial cell lines G355-5 at 0.01 nM conc; RT activity per ug/mL of protein concentration
[3] = tested on: Feline immunodeficiency virus; assay: Tested for the percentage decrease in replication of FIV-34TF10 at a concentration of 0.1 nM
[4] = tested on: Feline immunodeficiency virus; assay: Effect on replication of FIV 34TF10 in chronically infected feline glial cell lines G355-5 at 10000 nM conc; RT activity per ug/mL of protein concentration
[5] = tested on: Feline immunodeficiency virus; assay: Effect on replication of FIV 34TF10 in chronically infected feline glial cell lines G355-5 at 1 nM conc; RT activity per ug/mL of protein concentration
[6] = tested on: Feline immunodeficiency virus; assay: Effect on replication of FIV 34TF10 in chronically infected feline glial cell lines G355-5 at 0.01 nM conc; RT activity per ug/mL of protein concentration
[7] = tested on: Feline immunodeficiency virus; assay: Effect on replication of FIV 34TF10env in chronically infected feline glial cell lines G355-5 at 0 nM conc; RT activity per ug/mL of protein concentration
[8] = tested on: Feline immunodeficiency virus; assay: Effect on replication of FIV 34TF10 in chronically infected feline glial cell lines G355-5 at 1000 nM conc; RT activity per ug/mL of protein concentration
[9] = tested on: Feline immunodeficiency virus; assay: Effect on replication of FIV 34TF10 in chronically infected feline glial cell lines G355-5 at 0 nM conc; RT activity per ug/mL of protein concentration
[10] = tested on: Feline immunodeficiency virus; assay: Effect on replication of FIV 34TF10env in chronically infected feline glial cell lines G355-5 at 10 nM conc; RT activity per ug/mL of protein concentration
[11] = tested on: Feline immunodeficiency virus; assay: Effect on replication of FIV 34TF10env in chronically infected feline glial cell lines G355-5 at 10000 nM conc; RT activity per ug/mL of protein concentration
[12] = tested on: Feline immunodeficiency virus; assay: Effect on replication of FIV 34TF10env in chronically infected feline glial cell lines G355-5 at 100 nM conc; RT activity per ug/mL of protein concentration
[13] = tested on: Feline immunodeficiency virus; assay: Effect on replication of FIV 34TF10env in chronically infected feline glial cell lines G355-5 at 1 nM conc; RT activity per ug/mL of protein concentration
[14] = tested on: Feline immunodeficiency virus; assay: Effect on replication of FIV 34TF10 in chronically infected feline glial cell lines G355-5 at 100 nM conc; RT activity per ug/mL of protein concentration
[15] = tested on: Feline immunodeficiency virus; assay: Effect on replication of FIV 34TF10env in chronically infected feline glial cell lines G355-5 at 0.1 nM conc; RT activity per ug/mL of protein concentration
[16] = tested on: Feline immunodeficiency virus; assay: Effect on replication of FIV 34TF10env in chronically infected feline glial cell lines G355-5 at 1000 nM conc; RT activity per ug/mL of protein concentration
[17] = tested on: Feline immunodeficiency virus; assay: Effect on replication of FIV 34TF10 in chronically infected feline glial cell lines G355-5 at 10 nM conc; RT activity per ug/mL of protein concentration

| SMILES | Reverse transcriptase activity [1] | Reverse transcriptase activity [2] | Decrease [3] [%] | Reverse transcriptase activity [4] | Reverse transcriptase activity [5] | Reverse transcriptase activity [6] | Reverse transcriptase activity [7] | Reverse transcriptase activity [8] | Reverse transcriptase activity [9] | Reverse transcriptase activity [10] | Reverse transcriptase activity [11] | Reverse transcriptase activity [12] | Reverse transcriptase activity [13] | Reverse transcriptase activity [14] | Reverse transcriptase activity [15] | Reverse transcriptase activity [16] | Reverse transcriptase activity [17] |
| --- | --- | --- | --- | --- | --- | --- | --- | --- | --- | --- | --- | --- | --- | --- | --- | --- | --- |
| CN(C)CCCNC(=O)c1cc(NC(=O)c2cc(NC(=O)c3cc(NC(=O)c4ccccc4C(=O)O)cn3C)cn2C)cn1C | 390 | 2000 | 75 | 950 | 800 | 665 | 1590 | 480 | 1200 | 1700 | 1800 | 1900 | 1600 | 490 | 1990 | 2100 | 475 |
| Cc1nc(N)sc1C(=O)Nc1cn(C)c(C(=O)Nc2cn(C)c(C(=O)NCCCN(C)C)n2)n1 | 350 | 2000 | 75 | 950 | 800 | 675 | 2200 | 500 | 1025 | 1500 | 2100 | 1800 | 2000 | 550 | 1500 | 1700 | 475 |
